According to ChEMBL document CHEMBL1201862, “PubChem BioAssay data set” (2004):
Active and inactive are the calls of the source.

Key:
Aminopeptidase N = Aminopeptidase N (Plasmodium falciparum FcB1/Columbia, UniProt O96935); test: malaria alanyl aminopeptidase activity blockers – biochemical, fluorogenic H-Leu-NHMec substrate, 1536-well (AID 1445); parameters: species or system Plasmodium falciparum 3D7, 3D7
[1] = target: T1, Long-chain-fatty-acid--AMP ligase FadD28 (Mycobacterium tuberculosis, UniProt P9WQ59); test: Fluorescence polarization aasay to screen for inhibitors that compete for the binding of FadD28 to a bisubstrate Measured in Biochemical System Using Plate Reader - 2147-01_Inhibitor_Dose_CherryPick_Activity.; assay type: functional, Mycobacterium tuberculosis H37Rv
T1 sequence (P9WQ59 whole entry): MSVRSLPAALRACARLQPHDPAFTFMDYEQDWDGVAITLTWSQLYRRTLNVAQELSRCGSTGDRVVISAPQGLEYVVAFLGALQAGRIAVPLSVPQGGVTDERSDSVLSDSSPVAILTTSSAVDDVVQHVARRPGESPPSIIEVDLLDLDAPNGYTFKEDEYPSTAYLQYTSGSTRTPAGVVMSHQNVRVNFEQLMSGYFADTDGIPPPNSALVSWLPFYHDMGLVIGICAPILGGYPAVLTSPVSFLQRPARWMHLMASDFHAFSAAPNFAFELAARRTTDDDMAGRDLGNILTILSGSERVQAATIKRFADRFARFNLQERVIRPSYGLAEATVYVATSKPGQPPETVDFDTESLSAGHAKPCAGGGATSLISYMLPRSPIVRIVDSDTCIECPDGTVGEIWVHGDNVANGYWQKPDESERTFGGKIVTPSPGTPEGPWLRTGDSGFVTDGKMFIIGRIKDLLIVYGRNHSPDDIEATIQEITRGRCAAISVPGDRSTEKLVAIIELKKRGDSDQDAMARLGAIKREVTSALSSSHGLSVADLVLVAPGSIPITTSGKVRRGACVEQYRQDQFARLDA

BJ [2] = test: BJ-TERT fibroblast viability loss – cell-based, RAS-independent, luminescence, dose response (AID 1933); assay type: functional; details: Homo sapiens
BJ [3] = test: cells; assay type: functional, cell-based; details: Homo sapiens
[4] = target: Luciferin 4-monooxygenase (Photinus pyralis, UniProt P08659); test: inhibition of purified Photinus pyralis luciferase – biochemical, luminescence, dose response (AID 1891)
[5] = Luminescence Cell-Based Dose Confirmation HTS to Identify Inhibitors of Platelet Dense Granule Release. [Related pubchem assays: 1663 (Primary HTS), 1678 (Summary of Project)]; assay type: functional
BJ [6] = test: BJ-TERT-LT-ST fibroblast viability loss – cell-based, RAS-independent, luminescence, dose response (AID 1935); assay type: functional; details: Homo sapiens;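 further: BJ fibroblasts immortalized with TERT plus LT and ST oncogenes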
[7] = DRD fibroblast viability loss – cell-based, non-viral oncogenic, luminescence, dose response (AID 1934); assay type: functional; details: Homo sapiens
[8] = target: Glucose-6-phosphate 1-dehydrogenase (Homo sapiens, UniProt P11413); test: inhibition of Homo sapiens G6PD, dose series – biochemical, fluorescence, selectivity assay for P. falciparum G6PD inhibitor project, dose response (AID 504792); assay type: functional
Sequence of Glucose-6-phosphate 1-dehydrogenase (P11413 whole entry): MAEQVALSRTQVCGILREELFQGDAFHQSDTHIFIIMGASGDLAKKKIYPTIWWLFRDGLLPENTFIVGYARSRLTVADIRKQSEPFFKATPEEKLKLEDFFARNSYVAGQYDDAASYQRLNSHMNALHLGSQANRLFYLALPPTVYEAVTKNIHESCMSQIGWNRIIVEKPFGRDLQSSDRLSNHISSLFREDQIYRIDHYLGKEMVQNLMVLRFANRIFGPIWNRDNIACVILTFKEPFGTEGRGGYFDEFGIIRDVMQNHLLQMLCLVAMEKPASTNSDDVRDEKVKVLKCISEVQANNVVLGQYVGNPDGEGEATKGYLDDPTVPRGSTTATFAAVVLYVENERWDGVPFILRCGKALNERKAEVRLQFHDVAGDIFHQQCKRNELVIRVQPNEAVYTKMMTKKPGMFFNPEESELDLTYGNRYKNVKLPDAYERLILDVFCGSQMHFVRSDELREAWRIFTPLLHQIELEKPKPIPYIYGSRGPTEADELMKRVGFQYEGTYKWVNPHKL

[9] = ADP-Glo luciferase signal interference – biochemical, luminescence, cherry-picked samples, set 2, artefact control for CDK5 inhibitor project, dose response (AID 504546); assay type: functional, cell-based
[10] = target: Cyclin-dependent kinase 5/CDK5 activator 1 (Homo sapiens, UniProt Q00535); test: blockade of human CDK5 activity – biochemical, cherry-picked samples, set 2, dose response (AID 504545)
HEK293 = test: EBV LMP1 TES2 canonical NF-kB signalling blockers – cell-based, HEK293, luciferase, cherry-pick, dose response (AID 588343); assay type: functional; details: Homo sapiens
INS1 = test: INS-1E survival protection against cytokine death – cell-based, luminescence, retest, dose response (AID 449756); assay type: functional; details: Rattus norvegicus;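 further: cell death triggered by IL-1 beta plus TNF-alpha plus IFN-gamma mixture; protective hits raise ATP signal compared with cytokine alone wells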
CAAX prenyl protease 2 = CAAX prenyl protease 2 (Homo sapiens, UniProt Q9Y256); test: inhibition of Ras-converting CAAX protease Rce1 – biochemical, yeast membranes, quenched-peptide fluorescence, cherry-pick, dose response (AID 588849)
Paired box protein Pax-8 = Paired box protein Pax-8 (Homo sapiens, UniProt Q06710); test: PAX8 transcriptional activity inhibition in RMG-I – RMG-I cells, luciferase, cherry-pick, dose response (AID 687027); assay type: functional, cell-based;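 further: luciferase reporter driven by Pax8 target thyroperoxidase promoter measured by SteadyGlo luminescence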
Sequence of Paired box protein Pax-8 (Q06710 whole entry): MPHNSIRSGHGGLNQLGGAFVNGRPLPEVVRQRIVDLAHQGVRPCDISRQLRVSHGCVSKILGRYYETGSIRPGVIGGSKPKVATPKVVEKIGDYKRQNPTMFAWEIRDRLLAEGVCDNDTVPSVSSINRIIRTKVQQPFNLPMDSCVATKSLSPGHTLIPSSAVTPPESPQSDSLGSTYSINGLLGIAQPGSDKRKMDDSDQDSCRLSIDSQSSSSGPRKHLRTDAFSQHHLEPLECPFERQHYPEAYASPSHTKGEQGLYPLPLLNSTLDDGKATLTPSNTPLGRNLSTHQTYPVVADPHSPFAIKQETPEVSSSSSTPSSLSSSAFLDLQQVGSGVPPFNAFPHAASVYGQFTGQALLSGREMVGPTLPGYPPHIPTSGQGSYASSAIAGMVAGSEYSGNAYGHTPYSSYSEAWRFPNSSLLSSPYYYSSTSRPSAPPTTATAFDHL

[11] = general cell-killing toxicity readout – plate reader, dry powder samples, cytotoxicity control for PAX8 inhibitor project, dose response (AID 743021); assay type: functional, cell-based
Aspartyl aminopeptidase = target: T2, Aspartyl aminopeptidase (Plasmodium falciparum 3D7, UniProt Q8I2J3)
T2 sequence (Q8I2J3 whole entry): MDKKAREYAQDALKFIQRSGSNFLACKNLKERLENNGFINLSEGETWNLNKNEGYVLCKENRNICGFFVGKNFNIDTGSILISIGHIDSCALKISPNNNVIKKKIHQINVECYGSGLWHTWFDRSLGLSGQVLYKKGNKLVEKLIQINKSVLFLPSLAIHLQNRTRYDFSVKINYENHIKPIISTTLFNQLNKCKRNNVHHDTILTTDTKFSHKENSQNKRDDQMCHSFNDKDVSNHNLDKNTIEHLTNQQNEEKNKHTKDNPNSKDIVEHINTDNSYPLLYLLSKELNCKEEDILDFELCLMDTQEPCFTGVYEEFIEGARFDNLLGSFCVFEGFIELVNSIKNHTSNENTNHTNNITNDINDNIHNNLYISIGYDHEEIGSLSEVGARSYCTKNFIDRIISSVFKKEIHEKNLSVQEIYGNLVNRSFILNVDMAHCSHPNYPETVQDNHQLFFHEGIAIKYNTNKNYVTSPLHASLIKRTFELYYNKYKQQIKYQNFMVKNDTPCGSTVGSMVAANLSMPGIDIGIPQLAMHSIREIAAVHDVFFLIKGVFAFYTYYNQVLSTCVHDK

Procathepsin L = Procathepsin L (Homo sapiens, UniProt P07711)
Vasopressin V1a receptor = Vasopressin V1a receptor (Homo sapiens, UniProt P37288); test: Counterscreen for Oxytocin Receptor (OXTR) agonists: Fluorescence-based cell-based high throughput dose response assay to identify agonists of the vasopressin 1 receptor (V1R). [Related pubchem assays: 2435 (Primary screen (OXTR agonists in singlicate)), 434991 (Counterscreen (V1R agonists in triplicate)), 2482 (Summary (OXTR agonists)) …; assay type: functional
Sequence of Vasopressin V1a receptor (P37288 whole entry): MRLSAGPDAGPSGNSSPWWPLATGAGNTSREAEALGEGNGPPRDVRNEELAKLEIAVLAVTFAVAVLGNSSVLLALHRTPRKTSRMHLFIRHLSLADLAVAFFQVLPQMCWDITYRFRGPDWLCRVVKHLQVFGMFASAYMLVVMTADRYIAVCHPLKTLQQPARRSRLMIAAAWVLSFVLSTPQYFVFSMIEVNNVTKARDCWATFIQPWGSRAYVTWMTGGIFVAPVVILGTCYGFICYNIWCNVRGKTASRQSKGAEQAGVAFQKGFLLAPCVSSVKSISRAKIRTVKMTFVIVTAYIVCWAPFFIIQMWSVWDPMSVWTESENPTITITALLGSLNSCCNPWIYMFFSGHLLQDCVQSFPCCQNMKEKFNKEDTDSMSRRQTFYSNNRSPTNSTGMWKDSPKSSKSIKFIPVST

Oxytocin receptor = Oxytocin receptor (Homo sapiens, UniProt P30559); test: Fluorescence-based cell-based high throughput dose response assay for agonists of the Oxytocin Receptor (OXTR). [Related pubchem assays: 2435 (Primary screen (OXTR agonists in singlicate)), 434991 (Counterscreen (V1R agonists in triplicate)), 2482 (Summary (OXTR agonists)), 434963 (Confirmation screen (OXTR agonists in triplicate))]; assay type: functional
Sequence of Oxytocin receptor (P30559 whole entry): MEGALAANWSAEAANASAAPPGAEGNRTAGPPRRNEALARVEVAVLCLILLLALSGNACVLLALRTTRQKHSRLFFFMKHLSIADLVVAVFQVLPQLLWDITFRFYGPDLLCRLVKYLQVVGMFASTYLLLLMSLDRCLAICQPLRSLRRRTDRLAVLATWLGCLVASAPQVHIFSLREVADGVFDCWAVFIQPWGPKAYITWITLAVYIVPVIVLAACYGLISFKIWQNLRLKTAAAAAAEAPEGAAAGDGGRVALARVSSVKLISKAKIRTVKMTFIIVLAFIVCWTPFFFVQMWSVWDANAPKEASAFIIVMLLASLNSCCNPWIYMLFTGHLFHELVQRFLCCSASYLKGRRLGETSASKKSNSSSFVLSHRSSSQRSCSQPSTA

[12] = target: Transitional endoplasmic reticulum ATPase (Homo sapiens, UniProt P55072, C522A); test: C522A mutant p97 ATPase inhibitors, dose response, counter-screen for p97 inhibitor project, biochemical, luminescence (AID 1544)
[13] = target: Transitional endoplasmic reticulum ATPase (Homo sapiens, UniProt P55072); test: p97 ATPase inhibitors, dose response, biochemical (AID 1534)
Sequence of Transitional endoplasmic reticulum ATPase (Homo sapiens, UniProt P55072) (P55072 whole entry): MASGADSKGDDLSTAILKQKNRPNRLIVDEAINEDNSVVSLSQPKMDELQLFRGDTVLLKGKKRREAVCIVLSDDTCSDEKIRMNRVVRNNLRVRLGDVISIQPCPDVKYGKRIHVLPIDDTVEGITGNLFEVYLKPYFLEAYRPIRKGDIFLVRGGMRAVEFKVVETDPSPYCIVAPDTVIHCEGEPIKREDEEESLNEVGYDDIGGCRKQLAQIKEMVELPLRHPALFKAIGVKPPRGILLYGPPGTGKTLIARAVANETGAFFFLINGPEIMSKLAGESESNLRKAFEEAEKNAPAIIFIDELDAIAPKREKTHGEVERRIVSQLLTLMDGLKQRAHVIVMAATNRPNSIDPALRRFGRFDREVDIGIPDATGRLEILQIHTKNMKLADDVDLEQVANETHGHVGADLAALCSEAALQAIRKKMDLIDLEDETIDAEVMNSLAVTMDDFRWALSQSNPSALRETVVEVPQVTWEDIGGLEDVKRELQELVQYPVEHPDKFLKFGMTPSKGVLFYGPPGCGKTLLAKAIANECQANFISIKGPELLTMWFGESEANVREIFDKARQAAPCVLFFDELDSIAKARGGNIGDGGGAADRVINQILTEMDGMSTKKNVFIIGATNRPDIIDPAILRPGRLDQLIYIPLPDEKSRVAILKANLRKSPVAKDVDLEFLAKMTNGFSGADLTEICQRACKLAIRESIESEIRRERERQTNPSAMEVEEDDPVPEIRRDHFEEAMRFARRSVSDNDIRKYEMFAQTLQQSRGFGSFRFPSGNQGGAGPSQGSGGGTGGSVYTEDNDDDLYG

[14] = target: Induced myeloid leukemia cell differentiation protein Mcl-1 (Homo sapiens, UniProt Q07820); assay type: functional
Sequence of Induced myeloid leukemia cell differentiation protein Mcl-1 (Q07820 whole entry): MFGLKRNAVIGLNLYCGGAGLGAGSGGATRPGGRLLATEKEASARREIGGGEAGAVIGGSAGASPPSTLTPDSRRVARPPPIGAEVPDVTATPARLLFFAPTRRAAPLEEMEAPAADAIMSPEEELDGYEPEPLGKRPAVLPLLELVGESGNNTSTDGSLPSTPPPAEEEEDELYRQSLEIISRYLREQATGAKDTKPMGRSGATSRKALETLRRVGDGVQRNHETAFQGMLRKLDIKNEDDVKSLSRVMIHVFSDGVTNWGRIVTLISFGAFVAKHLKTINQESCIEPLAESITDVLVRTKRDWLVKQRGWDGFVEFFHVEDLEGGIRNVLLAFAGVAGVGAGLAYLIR

Beta-galactosidase = Beta-galactosidase (Escherichia coli, UniProt Q8VNN2); test: detection-enzyme interference by beta-gal modulators – biochemical, E. coli enzyme, set 3, artefact control for CCR6 antagonist project, dose response (AID 504712); assay type: functional
Sequence of Beta-galactosidase (Q8VNN2 whole entry): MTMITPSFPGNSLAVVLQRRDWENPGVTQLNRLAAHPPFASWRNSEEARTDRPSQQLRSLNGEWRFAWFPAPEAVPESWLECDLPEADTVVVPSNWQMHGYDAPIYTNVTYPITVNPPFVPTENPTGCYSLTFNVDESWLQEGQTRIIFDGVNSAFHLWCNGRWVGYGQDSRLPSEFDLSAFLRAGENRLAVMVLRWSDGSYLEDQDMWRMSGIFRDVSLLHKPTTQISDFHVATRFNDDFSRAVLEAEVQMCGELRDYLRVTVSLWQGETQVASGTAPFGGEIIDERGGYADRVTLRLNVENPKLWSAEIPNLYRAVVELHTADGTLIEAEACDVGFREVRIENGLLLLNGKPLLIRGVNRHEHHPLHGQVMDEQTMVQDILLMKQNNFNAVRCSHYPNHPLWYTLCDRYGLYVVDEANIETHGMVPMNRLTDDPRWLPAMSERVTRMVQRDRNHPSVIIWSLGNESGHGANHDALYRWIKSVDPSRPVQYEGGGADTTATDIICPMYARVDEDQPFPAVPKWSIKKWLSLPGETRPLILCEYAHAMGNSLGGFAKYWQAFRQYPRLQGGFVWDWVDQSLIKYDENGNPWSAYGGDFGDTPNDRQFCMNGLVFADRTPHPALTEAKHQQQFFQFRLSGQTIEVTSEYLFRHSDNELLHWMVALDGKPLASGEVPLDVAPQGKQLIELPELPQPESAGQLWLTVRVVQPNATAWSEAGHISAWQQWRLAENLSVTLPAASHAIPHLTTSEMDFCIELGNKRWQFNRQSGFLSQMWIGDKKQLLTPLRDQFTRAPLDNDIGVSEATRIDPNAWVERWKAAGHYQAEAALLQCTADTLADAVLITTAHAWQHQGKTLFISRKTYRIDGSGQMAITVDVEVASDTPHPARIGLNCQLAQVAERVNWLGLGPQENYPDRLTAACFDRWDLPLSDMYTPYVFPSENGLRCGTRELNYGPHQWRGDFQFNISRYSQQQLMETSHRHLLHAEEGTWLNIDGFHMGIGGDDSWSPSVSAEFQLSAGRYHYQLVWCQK

Sequence of Aminopeptidase N (O96935 whole entry): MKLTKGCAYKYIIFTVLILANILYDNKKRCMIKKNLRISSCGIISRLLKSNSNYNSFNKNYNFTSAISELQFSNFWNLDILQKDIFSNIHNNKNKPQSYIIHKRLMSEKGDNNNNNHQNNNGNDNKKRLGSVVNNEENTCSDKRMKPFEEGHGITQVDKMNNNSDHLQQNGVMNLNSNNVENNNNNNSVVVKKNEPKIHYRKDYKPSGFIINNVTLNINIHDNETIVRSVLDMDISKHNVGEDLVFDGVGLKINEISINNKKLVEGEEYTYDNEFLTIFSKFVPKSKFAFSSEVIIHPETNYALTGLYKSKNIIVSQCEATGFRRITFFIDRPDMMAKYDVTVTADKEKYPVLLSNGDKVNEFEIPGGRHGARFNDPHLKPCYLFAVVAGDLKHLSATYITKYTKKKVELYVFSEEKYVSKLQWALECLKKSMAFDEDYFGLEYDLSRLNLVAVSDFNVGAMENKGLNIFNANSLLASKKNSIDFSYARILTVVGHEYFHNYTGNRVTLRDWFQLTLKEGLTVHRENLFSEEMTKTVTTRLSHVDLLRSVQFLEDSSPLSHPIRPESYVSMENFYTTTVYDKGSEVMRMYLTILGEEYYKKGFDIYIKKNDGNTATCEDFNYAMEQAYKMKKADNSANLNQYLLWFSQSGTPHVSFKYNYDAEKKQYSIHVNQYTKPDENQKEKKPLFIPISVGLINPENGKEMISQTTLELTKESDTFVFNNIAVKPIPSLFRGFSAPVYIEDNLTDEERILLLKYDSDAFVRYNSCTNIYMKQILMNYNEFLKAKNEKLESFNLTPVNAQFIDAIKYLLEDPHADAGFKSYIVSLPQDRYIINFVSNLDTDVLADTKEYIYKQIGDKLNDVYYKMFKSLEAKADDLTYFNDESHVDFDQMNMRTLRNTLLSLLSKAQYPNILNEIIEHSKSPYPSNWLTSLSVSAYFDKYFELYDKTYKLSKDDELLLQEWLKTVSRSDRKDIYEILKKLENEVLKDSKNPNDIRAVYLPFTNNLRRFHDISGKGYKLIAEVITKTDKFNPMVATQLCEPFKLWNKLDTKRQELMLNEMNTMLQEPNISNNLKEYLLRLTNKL

NS(=O)(=O)c1ccc(Nc2nc3ccccc3nc2NS(=O)(=O)c2cccc([N+](=O)[O-])c2)cc1
IC50 (Aminopeptidase N): 42.9 µM (active) | AC50 [1]: 53 µM (active)

COc1ccc(/C=C/c2nc3ccccc3n2C)cc1
EC50 (BJ [2]): 9.33 µM (active) | EC50 (BJ [3]): 7.64 µM (active) | EC50 [4]: 0.747 µM (active) | EC50 [5]: 1.01 µM (active) | EC50 (BJ [6]): > 150 µM (inconclusive) | EC50 [7]: 7.64 µM (active) | IC50 [8]: > 80 µM (inactive) | AC50 [9]: 27 µM (active) | AC50 [10]: 16.4 µM (active) | AC50 (HEK293): 0.997 µM (active) | AC50 (INS1): 4.95 µM (active) | AC50 (CAAX prenyl protease 2): 7.09 µM (active) | AC50 (Paired box protein Pax-8): 6.69 µM (active) | AC50 [11]: 5.95 µM (active)

Cc1ccc(N2C(=O)/C(=C\Nn3cnnc3)c3ccccc3C2=O)cc1
IC50 (Aspartyl aminopeptidase): 1.95 µM (active) | IC50 (Procathepsin L): > 59.6 µM (not active)

CC(C(=O)Nc1ccc2c(c1)OCO2)c1ccc([N+](=O)[O-])cc1 (centres undefined)
EC50 (Vasopressin V1a receptor): > 29.9 µM (not active) | EC50 (Oxytocin receptor): > 29.9 µM (not active)

O=C1NC(=S)S/C1=C\c1c(-c2ccccc2)[nH]c2ccccc12
IC50 [12]: > 50 µM (not active) | IC50 [13]: > 50 µM (not active) | IC50 [14]: 4.97 µM (active) | IC50 (Beta-galactosidase): > 66.6 µM (inactive)
